Assay results taken from patent publication US7427626B2, “2-Anilino-4-(imidazol-5-yl)-pyrimidine derivatives and their use as cdk (cdk2) inhibitors” (AstraZeneca AB, priority 2003, dated 2008).

molecular target: T1, CDK2/Cyclin E (Homo sapiens, UniProt P24941); test: in vitro kinase assay, Scintillation Proximity Assay, incorporation of [γ-33-P]-ATP into GST-Rb; format: biochemical; conditions: CDK2/Cyclin E partially-purified enzyme, GST-Rb substrate, 0.2 μM ATP, 60 minutes at room temperature
T1 construct: The open reading frames of CDK2 and Cyclin E were isolated; made in house; host or cells: Spodoptera frugiperda SF21 insect cells with baculovirus co-infection (CDK2 and cyclin E); E. coli BL21 (DE3) pLysS (GST-Rb substrate)
Method: The compounds were tested in an in vitro kinase assay in 96 well format using Scintillation Proximity Assay (SPA—obtained from Amersham) for measuring incorporation of [γ-33-P]-Adenosine Triphosphate into a test substrate (GST-Retinoblastoma protein; GST-Rb). In each well was placed the compound to be tested (diluted in DMSO and water to correct concentrations) and in control wells either roscovitine as an inhibitor control or DMSO as a […] control.
Approximately 0.2 μl of CDK2/Cyclin E partially-purified enzyme (amount dependent on enzyme activity) diluted in 25 μl incubation buffer was added to each well then 20 μl of GST-Rb/ATP/ATP33 mixture (containing 0.5 μg GST-Rb and 0.2 μM ATP and 0.14 μCi [γ-33-P]-Adenosine Triphosphate in incubation buffer), and the resulting mixture shaken gently, then incubated at room temperature for 60 minutes.
To each well was then added 150 μL stop solution containing (0.8 mg/well of Protein A-PVT SPA bead (Amersham)), 20 pM/well of Anti-Glutathione Transferase, Rabbit IgG (obtained from Molecular Probes), 61 mM EDTA and 50 mM HEPES pH 7.5 containing 0.05% sodium azide.
The plates were sealed with Topseal-S plate sealers, left for two hours then spun at 2500 rpm, 1124 xg., for 5 minutes. The plates were read on a Topcount for 30 seconds per well. […]
E. coli paste was resuspended in 10 ml/g of NETN buffer (50 mM Tris pH 7.5, 120 mM NaCl, 1 mM EDTA, 0.5% v/v NP-40, 1 mM PMSF, 1 ug/ml leupeptin, 1 μg/ml aprotinin and 1 ug/ml pepstatin) and sonicated for 2×45 seconds per 100 ml homogenate. […] The final product was analysed by Sodium Dodeca Sulfate (SDS) PAGE (Polyacrylamide gel) using 8-16% Tris-Glycine gels (Novex, San Diego, USA).
The open reading frames of CDK2 and Cyclin E were isolated by reverse transcriptase-PCR using HeLa cell and activated T cell mRNA as a template and cloned into the insect expression vector pVL1393 (obtained from Invitrogen 1995 catalogue number: V1392-20). […]

| IC50 | Structure (SMILES) |
| --- | --- |
| 4 nM | CC(C)n1c(-c2ccnc(Nc3ccccc3)n2)cnc1C(=O)c1ccncc1 [Example 8, 2-Anilino-4-[2-(pyridin-4-ylcarbonyl)-1-isopropylimidazol-5-yl]pyrimidine] |
| 64 nM | CC(C)n1c(-c2ccnc(Nc3ccccc3)n2)cnc1C(=O)CCc1ccccc1 [Example 9, 2-Anilino-4-[2-(3-phenylpropionyl)-1-isopropylimidazol-5-yl]pyrimidine] |
| 65 nM | CC(C)n1c(-c2ccnc(Nc3ccccc3)n2)cnc1C(=O)c1ccccc1 [Example 6, 2-Anilino4(2-benzoyl-1-isopropylimidazol-5-yl)pyrimidine] |
